From US12565475B2, “Small molecule compound inhibiting signal transmission path of TLR7 and TLR9 and use thereof” (AJOU UNIVERSITY INDUSTRY-ACADEMIC COOPERATION FOUNDATION, priority 2019, dated 2026)
“Also recorded” adds a separate entry of the source.

How the values were obtained:
[1] = target: T1, TLR7 (Mus musculus, UniProt P58681); test: TLR7-mediated TNF-α secretion (imiquimod stimulation), ELISA; assay type: cell-based, murine
T1 construct: endogenous in cells; host or cells: RAW 264.7
T1 sequence (P58681 27-1050): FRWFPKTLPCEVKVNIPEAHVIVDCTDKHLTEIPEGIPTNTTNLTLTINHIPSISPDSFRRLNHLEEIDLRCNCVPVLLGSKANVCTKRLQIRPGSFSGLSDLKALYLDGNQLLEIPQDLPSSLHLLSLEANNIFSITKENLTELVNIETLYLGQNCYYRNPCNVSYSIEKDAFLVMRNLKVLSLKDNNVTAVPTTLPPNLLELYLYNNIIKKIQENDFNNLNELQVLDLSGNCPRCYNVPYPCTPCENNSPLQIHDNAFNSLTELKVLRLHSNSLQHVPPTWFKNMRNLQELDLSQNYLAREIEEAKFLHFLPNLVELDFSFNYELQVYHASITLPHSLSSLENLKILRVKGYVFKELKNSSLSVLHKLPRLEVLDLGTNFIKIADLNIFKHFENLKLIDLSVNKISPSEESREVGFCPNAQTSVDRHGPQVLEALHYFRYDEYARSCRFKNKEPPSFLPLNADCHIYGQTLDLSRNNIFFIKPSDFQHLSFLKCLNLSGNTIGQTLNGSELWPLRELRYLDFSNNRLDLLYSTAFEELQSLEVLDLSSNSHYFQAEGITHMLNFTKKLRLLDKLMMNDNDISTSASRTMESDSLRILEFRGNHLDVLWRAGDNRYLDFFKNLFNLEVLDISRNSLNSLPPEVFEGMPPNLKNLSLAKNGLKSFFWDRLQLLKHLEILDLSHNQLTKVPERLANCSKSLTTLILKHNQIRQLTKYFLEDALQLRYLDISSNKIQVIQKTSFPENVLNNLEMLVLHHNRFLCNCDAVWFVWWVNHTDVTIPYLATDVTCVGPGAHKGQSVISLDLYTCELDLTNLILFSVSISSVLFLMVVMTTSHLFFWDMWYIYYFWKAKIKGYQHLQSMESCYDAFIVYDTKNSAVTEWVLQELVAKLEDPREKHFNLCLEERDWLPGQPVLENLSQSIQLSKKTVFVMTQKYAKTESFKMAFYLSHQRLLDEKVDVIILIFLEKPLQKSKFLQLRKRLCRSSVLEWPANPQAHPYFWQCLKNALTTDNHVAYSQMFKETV
Method: (§1) Agonists specific to TLR1/TLR2 (Pam3CSK4), TLR2/TLR6 (FSL-1), TLR3 (Poly I:C), TLR7 (imiquimod), and TLR8 (TL8-506) were purchased from InvivoGen Ltd. (Hong-Kong, China), and a TLR4-specific agonist (LPS from E. coli O111:B4) was purchased from Sigma-Aldrich, Inc. For TLR9-specific stimulation, class C CpG-ODN (ODN2395, 5′-TCGTCGTTTTCGGCGCGCGCCG-3′) having full phosphorothioate backbone modification was synthesized (Bioneer, Inc., Daejeon, Korea). All TLR agonists were dissolved in deionized water and applied to a culture media for TLR activation. The cells were treated with test compounds or a control medium for 1 hour, and then stimulated with a TLR agonist for 4 hours, or 24 hours in the case of poly(I:C), and the cytokine secretion was monitored.
(§2) RAW 264.7 or differentiated THP-1 cell lines were seeded onto a 96-well culture plate at a density of 2×10^4 cells/well. The cells were treated with test compounds for 1 hour followed by the stimulation with TLR agonists for 4 hours. The supernatant was transferred to pre-coated assay plates, and the secretion levels of mouse and human TNF-α were measured by respective ELISA kits (Invitrogen, Carlsbad, CA, USA). All experiments were performed according to the manufacturer's instructions. Absorbance was measured by a microplate reader spectrophotometer (Molecular Devices, Inc., San Jose, CA, USA), and data was interpolated from a standard curve using SoftMax Pro 5.3 software (Molecular Devices, Inc.).
In order to evaluate the antagonistic effect of each compound on TLR7/TLR9 through ELISA (enzyme-linked immunosorbent assay), RAW 264.7 cells were pretreated with the eight compounds followed by the stimulation with a TLR7-specific agonist (imiquimod, 3.61 μM) or with a TLR9-specific agonist (ODN2395, 0.5 μM). […] Since the two ligands had no agonistic effect per se (FIG. 3B), the increased cytokine production may be due to cell activation (or non-specific cellular stress) by co-treatment. Consequently, TIC10 was selected as the most suitable lead for further optimization to improve the inhibitory potency against both TLR7 and TLR9.

[2] = target: T2, TLR1/2 (Mus musculus, UniProt Q9EPQ1+Q9QUN7); test: TLR1/2-mediated TNF-α secretion (Pam3CSK4), ELISA; assay type: cell-based, murine; conditions: RAW 264.7, 10 or 20 μM
T2 construct: endogenous in cells; host or cells: RAW 264.7
T2 sequence (Q9EPQ1 26-795): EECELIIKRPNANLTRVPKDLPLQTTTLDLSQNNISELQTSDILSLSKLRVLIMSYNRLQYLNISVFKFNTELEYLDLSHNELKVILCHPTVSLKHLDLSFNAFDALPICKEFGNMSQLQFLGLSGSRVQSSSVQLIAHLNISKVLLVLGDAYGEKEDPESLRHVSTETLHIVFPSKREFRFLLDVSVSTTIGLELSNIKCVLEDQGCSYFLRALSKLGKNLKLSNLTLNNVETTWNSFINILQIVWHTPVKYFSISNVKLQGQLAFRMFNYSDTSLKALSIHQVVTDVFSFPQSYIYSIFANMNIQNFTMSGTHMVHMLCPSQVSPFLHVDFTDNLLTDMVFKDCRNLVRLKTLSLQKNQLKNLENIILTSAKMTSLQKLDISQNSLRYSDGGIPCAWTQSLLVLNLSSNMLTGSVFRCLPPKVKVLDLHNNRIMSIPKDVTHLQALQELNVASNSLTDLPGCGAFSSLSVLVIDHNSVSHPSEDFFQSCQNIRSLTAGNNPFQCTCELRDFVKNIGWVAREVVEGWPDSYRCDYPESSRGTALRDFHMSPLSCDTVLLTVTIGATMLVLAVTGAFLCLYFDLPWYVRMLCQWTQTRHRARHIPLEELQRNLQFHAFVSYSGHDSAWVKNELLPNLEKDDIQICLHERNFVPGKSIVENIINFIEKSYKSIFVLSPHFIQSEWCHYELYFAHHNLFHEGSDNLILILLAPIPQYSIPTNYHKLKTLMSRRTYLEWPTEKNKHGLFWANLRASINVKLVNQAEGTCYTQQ
T2 sequence (Q9QUN7 25-784): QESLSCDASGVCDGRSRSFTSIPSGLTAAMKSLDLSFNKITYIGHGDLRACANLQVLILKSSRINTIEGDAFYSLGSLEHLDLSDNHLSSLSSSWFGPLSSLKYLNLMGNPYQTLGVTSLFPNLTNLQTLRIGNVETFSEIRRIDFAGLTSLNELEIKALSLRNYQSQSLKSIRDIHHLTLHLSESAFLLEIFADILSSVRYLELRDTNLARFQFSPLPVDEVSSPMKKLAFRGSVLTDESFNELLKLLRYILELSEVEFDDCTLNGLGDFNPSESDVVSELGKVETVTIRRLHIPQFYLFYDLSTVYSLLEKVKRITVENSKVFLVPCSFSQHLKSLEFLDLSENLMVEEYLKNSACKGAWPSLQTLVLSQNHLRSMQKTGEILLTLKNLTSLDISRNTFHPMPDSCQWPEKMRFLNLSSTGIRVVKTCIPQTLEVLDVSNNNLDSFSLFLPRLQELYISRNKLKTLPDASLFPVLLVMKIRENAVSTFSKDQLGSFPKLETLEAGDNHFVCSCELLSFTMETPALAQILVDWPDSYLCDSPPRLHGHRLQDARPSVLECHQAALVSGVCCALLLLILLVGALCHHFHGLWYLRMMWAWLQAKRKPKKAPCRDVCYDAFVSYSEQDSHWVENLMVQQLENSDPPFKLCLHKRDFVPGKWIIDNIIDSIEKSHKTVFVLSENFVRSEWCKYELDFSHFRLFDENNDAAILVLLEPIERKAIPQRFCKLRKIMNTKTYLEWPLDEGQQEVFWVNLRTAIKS
Method: as §1
as §2, with “All experiments were performed according to the manufacturer's instructions.” left out, “Inc.). […]” for “Inc.).”

TLR7-mediated TNF-α secretion ([1]; RAW 264.7, 10 or 20 μM, imiquimod (receptor specificity, FIG. 6)): moderately reduced
IC50 ([1]; RAW 264.7, imiquimod (FIG. 4D)): 6.79 µM
effect on TLR1/2-mediated cytokine (TNF-α) production [2]: no effect
SMILES: COc1ccc(CNc2ncc(-c3ccc4c(c3)OCO4)n2C)c(OC)c1 [TIC10-7, 5-(2H-1,3-benzodioxol-5-yl)-N-[(2,4-dimethoxyphenyl)methyl]-1-methyl-1H-imidazol-2-amine]
inhibitory efficacy on TLR7-mediated TNF-α secretion ([1]; RAW 264.7, 10 or 50 μM, imiquimod (FIG. 4B)): improved inhibitory efficacy compared to TIC10; also recorded: to a greater extent as compared to the other derivatives
